Data published in article PMC3740496, “Synthesis and biological activities of the respiratory chain inhibitor aurachin D and new ring versus chain analogues” (Beilstein Journal of Organic Chemistry, 2013).
Converted amounts (≈) assume the structure as drawn.

How the values were obtained:
[1] = tested on: mitochondrial membrane potential in U-2 OS osteosarcoma cells; test: MMP assay (high-content screening, TMRM); format: cell-based, human; conditions: 16 h; for reduction of the MMP: at concentrations as low as 5 µg/mL; for mitochondrial membrane potential (MMP), % of the control value: highest assay concentration (10 µg/mL), TMRM; for effect on MMP in the tested concentration range: 1 to 10 µg/mL
Description: Since aurachins are described as electron-transport inhibitors of the mitochondrial respiratory chain (complex I and III), we analyzed the synthetic analogues in high-content screening experiments with respect to a decrease of the mitochondrial membrane potential (MMP). Human U-2 OS osteosarcoma cells were treated for 16 hours with aurachins 4, 9–11, and 17–19 at concentrations between 1 and 10 µg/mL, and mitochondria were labeled with tetramethylrhodamine methyl ester (TMRM) in order to assess changes in MMP (Figure 2). Most prominent concentration-dependent effects were determined for aurachin D (4) and one of its analogues (17). […] This might be due to differential effects on different cell lines, a different time course of electron-transport inhibition, or a different mode of inducing apoptosis (e.g., via enhanced ROS formation). However, at the highest assay concentration also shorter chain analogues 9–11 reduced the MMP to approximately 60–80% of the control value as exemplarily shown for geranyl analogue 9 (Figure 2B).
Figure 2 (A) Loss of mitochondrial membrane potential in human U-2 OS osteosarcoma cells that were treated with aurachin D (4) and analogue 17. Images were acquired on a BD Pathway855 automated microscope and subsequently processed in AttoVision v1.6.2. The relative MMP was calculated based on TMRM fluorescence intensity in the cytoplasmic segments. The value of the negative control (untreated cells) was set to 100% and the value of FCCP-treated cells (positive control) was set to 0%. Bars represent the mean ±SEM of all cellular segments within a well. (B) Representative HCS images of U-2 OS cells that were treated with aurachin D (4) or the geranyl analogue 9. Cells were labeled with TMRM and imaged in the rhodamine channel at 200× magnification. […]
MMP assay: Human U-2 OS osteosarcoma cells (HTB-96) were obtained from the American Type Culture Collection (ATCC) and were cultured under the conditions recommended by the depositor. Cells from actively growing cultures were harvested and seeded at 8 × 10^3 cells per well in 96-well imaging plates (BD Falcon). After 1 d cells reached approximately 60% confluency and were treated with aurachin analogues at the assigned concentrations for 16 h. In addition, cells were stimulated with 1 µM FCCP [carbonyl cyanide 4-(trifluoromethoxy)phenylhydrazone] as a positive control 1 h prior to the measurement. For labeling, cells were washed twice with assay buffer ([…], 5.4 mM KCl, 2 mM MgCl2, 10 mM glucose, 2 mM CaCl2, 10 mM HEPES; pH 7.35) and 100 µL of a staining solution (50 nM TMRM, […]
5 µg/mL Hoechst33342 in assay buffer) was added. The cells were stained for 30 min at 37 °C and after washing with assay buffer the samples were examined on an automated microscope (BD Pathway855) in 200-fold magnification with appropriate filter sets for rhodamine and Hoechst. For image analysis, a dual mask (Cyto-Nuc-Ring) was applied in AttoVision v1.6.2. Presented rhodamine fluorescence intensity values were generated in the cytoplasmic segment (ring around nuclei) on a single cell basis and averaged over the complete sample (well).
In vitro antiplasmodial assays: The chloroquine-resistant strain FcB1/Colombia of Plasmodium falciparum was maintained in vitro on human erythrocytes in RPMI 1640 medium supplemented by 8% (v/v) heat-inactivated human serum, at 37 °C, under an atmosphere of 3% CO2, 6% O2, and 91% N2. In vitro drug susceptibility assays was measured by [3H]-hypoxanthine incorporation as described. Drugs were prepared in DMSO at a 10 mg/mL concentration. Compounds were serially diluted two-fold with 100 µL culture medium in 96-well plates. Asynchronous parasite cultures (100 µL, 1% parasitaemia and 1% final hematocrite) were then added to each well and incubated for 24 h at 37 °C prior to the addition of 0.5 µCi of [3H]- hypoxanthine (GE Healthcare, France, 1 to 5 Ci·mmol/mL) per well. After a further incubation of 24 h, plates were frozen and thawed. […]

[2] = tested on: Micrococcus luteus; test: MIC determination; format: cell-based; conditions: duplicate, mean ±SD
Description: (§1) MIC determination: Indicator strains were obtained from the German Collection of Microorganisms and Cell Cultures (Deutsche Sammlung für Mikroorganismen und Zellkulturen, DSMZ) or were part of our internal strain collection. All microorganisms were handled under standard conditions recommended by the depositor. Overnight […]
(§2) cultures of bacteria were prepared in EBS medium (0.5% casein peptone, 0.5% proteose peptone, 0.1% meat peptone, 0.1% yeast extract; pH 7.0). Yeasts and molds were grown in Myc medium (1% phytone peptone, 1% glucose, 50 mM
(§3) HEPES, pH 7.0). The overnight cultures of microorganisms were diluted to OD600 0.01 (bacteria) or 0.05 (yeasts/molds) in the respective growth medium. Serial dilutions of compounds were prepared as duplicates in sterile 96-well plates. The cell suspension was added and microorganisms were grown overnight on a microplate shaker (900 rpm, 30 °C or 37 °C). Growth inhibition was assessed by measuring the OD600 on a plate reader (POLARstar, BMG Labtech). MIC50 values were determined as averages relative to respective control samples by sigmoidal curve fitting. […]

[3] = tested on: Klebsiella pneumoniae DSM30104; test: MIC determination; format: cell-based; conditions: duplicate, mean ±SD
Description: as §1, §2, §3

[4] = tested on: Escherichia coli DH5α (wt); test: MIC determination; format: cell-based; conditions: duplicate, mean ±SD
Description: as §1, §2, §3

[5] = tested on: Staphylococcus aureus DSM11822 (MRSA); test: MIC determination; format: cell-based; conditions: duplicate, mean ±SD
Description: as §1, §2, §3

[6] = tested on: Bacillus subtilis DSM10; test: MIC determination; format: cell-based; conditions: duplicate, mean ±SD; for MIC50: Bacillus subtilis, DSM10
Description: as §1, §2, §3

[7] = tested on: Escherichia coli (TolC); test: MIC determination; format: cell-based; conditions: read-out: MIC50 Escherichia coli (TolC)
Description: as §1, §2, §3

[8] = tested on: Staphylococcus aureus Newman (MSSA); test: MIC determination; format: cell-based; conditions: duplicate, mean ±SD
Description: as §1, §2, §3

SMILES | reduction of the MMP [1] | mitochondrial membrane potential (MMP), % of the control value [1] | MIC50 [2] [µg/mL] | MIC50 [3] [µg/mL] | MIC50 [4] [µg/mL] | MIC50 [5] [µg/mL] | MIC50 [6] [µg/mL] | MIC50 [7] [µg/mL] | MIC50 [8] [µg/mL] | effect on MMP in the tested concentration range [1] | MIC50 Bacillus subtilis DSM10 [6]
CC(C)=CCC/C(C)=C/CC/C(C)=C/Cc1c(C)[nH]c2ccccc2c1=O [compound 4, aurachin D] | significantly reduced the MMP | approximately 50% | 1.47 ± 0.12 (≈ 4.04 µM) | > 64 | > 64 | 2.1 ± 0.19 (≈ 5.78 µM) | < 0.1 | 8.36 ± 1 (≈ 23 µM) | 5.46 ± 1.05 (≈ 15 µM) | – | –
CC(C)=CCC/C(C)=C/Cc1c(C)[nH]c2ccccc2c1=O [compound 9] | – | 60–80% | 2.59 ± 0.34 (≈ 8.77 µM) | > 64 | > 64 | 4.5 ± 0.74 (≈ 15.2 µM) | < 0.1 | 1.41 ± 0.45 (≈ 4.77 µM) | 3.96 ± 0.49 (≈ 13.4 µM) | – | –
CC(C)=CCCC(C)=CCCC(C)=CCc1c(C)[nH]c2ccc3ccccc3c2c1=O [compound 17] | significantly reduced the MMP | – | > 64 | > 64 | > 64 | > 64 | > 64 | > 64 | > 64 | strongly diminished the MMP | –
COc1ccc2[nH]c(C)c(CC=C(C)CCC=C(C)CCC=C(C)C)c(=O)c2c1 [compound 18] | – | – | 49.2 ± 3.94 (≈ 125 µM) | > 64 | > 64 | > 64 | 6.75 ± 0.6 (≈ 17.2 µM) | > 64 | > 64 | essentially inactive | significant growth inhibitory effect
CC(C)=CCCC(C)=CCCC(C)=CCc1c(C)[nH]c2cc3c(cc2c1=O)OCO3 [compound 19] | – | – | > 64 | > 64 | > 64 | > 64 | 4.66 ± 0.5 (≈ 11.4 µM) | > 64 | 34.6 ± 5.13 (≈ 84.8 µM) | essentially inactive | significant growth inhibitory effect
